Results published in publication PMC10387993, “New pyrimidine-N-β-D-glucosides: synthesis, biological evaluation, and molecular docking investigations” (Turkish Journal of Chemistry, 2023).
In brackets after ≈: the same amount, converted by molar mass.

Key:
Type in all cases: cell-based
HT29 = assay: cells; conditions: Homo sapiens
Description: (§1) The cell lines were cultured in a cell medium (Dulbecco’s modified eagle’s or RPMI 1640) enriched with 10% (v/v) fetal bovine serum and 2% (v/v) Penicillin-Streptomycin (10,000 U/mL). First, old medium was removed out of the flask when the cells reached approximately 80% confluence. Next, cells were taken from the flasks surface using trypsin-EDTA solution and then subjected to centrifugation. Following, the cell pellet was suspended with fresh media and was inoculated into wells.
(§2) A cell suspension containing approximately 1 × 10^4 cells in 100 μL was seeded into the wells of 96-well culture plates. […]. The final volume of the wells was set to 200 μL by medium. Cell proliferation assay was evaluated by MTT (yellow tetrazolium MTT (3-(4,5-dimethylthiazolyl-2)-2,5-diphenyltetrazolium bromide) methods. Briefly, an MTT stock solution (5 mg of MTT/mL of distilled water) was filtered and kept at −20 °C until use. The cells were exposed to an MTT reagent (consisting of one parts of MTT stock solutions and nine parts of fresh RPMI 1640 without phenol red) for 4 h to form MTT formazan dye followed by the dye dissolved in DMSO with Sorenson’s buffer for 30 min at room temperature and then the plate was measured at 560 nm, with 690 nm as a reference interval, using a microplate reader. Each experiment was repeated at least three times for each cell line.
(§3) IC50 value is a concentration that inhibits half of the cells in vitro. The half maximal inhibitory concentration (IC50) of the test and control compounds was calculated using XLfit5 or excel spreadsheet and represent in μM at 95% confidence intervals. The proliferation assay results were expressed as the percent inhibition according to the following formula: % Inhibition = [1 - (Absorbance of Treatments /Absorbance of DMSO) × 100]. Three dose response parameters (GI50, TGI, LC50) were calculated according to the following formulas using the absorbance measurements of time zero (Tz), control growth (C), and test growth in the presence of drug (Ti). Growth inhibition of 50% (GI50) was calculated from [(Ti-Tz)/(C-Tz)] × 100 = 50, which is the drug concentration resulting in a 50% reduction in the net growth increase in control cells during the drug incubation. The drug concentration resulting in total growth inhibition (TGI) was calculated from Ti = Tz. The LC50 indicating a net loss of cells following treatment was calculated from [(Ti-Tz)/Tz] × 100 = −50.

Hep3B = assay: cells; conditions: Homo sapiens
Description: as §1, §2, §3

HeLa = assay: cells; conditions: Homo sapiens
Description: as §1, §2, §3

MCF7 = assay: cells; conditions: Homo sapiens
Description: as §1, §2, §3

C6 (Rat brain glioma) = assay: cells; conditions: Rattus norvegicus
Description: as §1, §2, §3

A549 = assay: cells; conditions: Homo sapiens
Description: as §1, §2, §3

[1] = LDH cytotoxic activity assay, HeLa; conditions: human, HeLa cells
Description: as §1
(§4) Approximately 5 × 10^3 cells in 100 μL were placed into 96-well plates as triplicates and treated with 25, 50, 75, and 100 μg/mL concentrations of test compounds at 37 °C with 5% CO2 for 24 h. LDH activity was obtained by determining absorbance at 492–630 nm using a microplate reader.

S. gordonii NCTC 7870 = assay: Microdilution MIC assay; conditions: Streptococcus gordonii, NCTC7870; S. gordonii NCTC 7870, 24 h at 35 °C
Description: (§5) MIC values of the compounds against bacterial strains were determined on the basis of a microwell dilution method. […] […]. Growth of microorganisms was determined visually after incubation for 24 h at 35 °C. The lowest concentration at which there was no visible growth (turbidity) was taken as the MIC.

E. coli ATCC 25922 = assay: Microdilution MIC assay; conditions: Escherichia coli, ATCC25922; E. coli ATCC 25922, 24 h at 35 °C
Description: as §5

[2] = system: S. aureus MRSA ATCC 46300; assay: Microdilution MIC assay; conditions: Staphylococcus aureus; S. aureus MRSA ATCC 46300, 24 h at 35 °C; read-out: MIC
Description: as §5

E. coli ESBL ATCC 35218 = assay: Microdilution MIC assay; conditions: Escherichia coli, ATCC35218; E. coli ESBL ATCC 35218, 24 h at 35 °C
Description: as §5

[3] = system: E. faecalis VRE ATCC 19433; assay: Microdilution MIC assay; conditions: Enterococcus faecalis; E. faecalis VRE ATCC 19433, 24 h at 35 °C
Description: as §5

[4] = LDH cytotoxic activity assay, HT29; conditions: human, HT29 cells
Description: as §1, §4

[5] = LDH cytotoxic activity assay, C6; conditions: rat, C6 glioma cells
Description: as §1, §4

normal FL cells = assay: cells; conditions: FL normal cells, MTT
Description: as §1, §2, §3

in vitro = conditions: human, LC50
Description: as §1, §2, §3

Which LC50 (concentration giving 50% net cell loss relative to time zero) (HT29; HT-29, read-out: LC50) does the source give for `Cc1cccc(-c2cc(-c3cccnc3)nc(N[C@@H]3O[C@H](CO)[C@@H](O)[C@H](O)[C@H]3O)n2)c1` [Compound 5, N-[4-(3-methylphenyl)-6-pyridin-3-ylpyrimidin-2-yl]-β-D-glucopyranosylamine] here?
The LC50 (concentration giving 50% net cell loss relative to time zero) was over 500 µg/mL.

What about the GI50 (HT29; HT-29, HT29, MTT) of the same compound?
The GI50 was 4.12 µg/mL (≈ 9.71 µM).

What about the IC50 (HT29; HT-29, HT29, MTT, read-out: IC50) of the same compound?
The IC50 was 72.6 µg/mL (≈ 171 µM).

And the IC (total growth inhibition) (HT29; HT-29, HT29, MTT, read-out: TGI)?
Its IC (total growth inhibition) is 126 µg/mL.

And the GI50 (Hep3B; MTT)?
The GI50 was 3.61 µg/mL (≈ 8.5 µM).

What about the IC50 (Hep3B; MTT, read-out: IC50) of the same compound?
The IC50 was 20.1 µg/mL (≈ 47.4 µM).

And the IC (total growth inhibition) (Hep3B; MTT, read-out: TGI)?
The IC (total growth inhibition) was 20.5 µg/mL.

What about the LC50 (concentration causing 50% net cell loss relative to time zero) (Hep3B; read-out: LC50) of the same compound?
Its LC50 (concentration causing 50% net cell loss relative to time zero) is over 500 µg/mL.

What about the GI50 (HeLa; MTT) of the same compound?
Its GI50 is over 500 µg/mL.

And the IC50 (HeLa; MTT, read-out: IC50)?
Its IC50 is over 500 µg/mL.

And the IC (total growth inhibition) (HeLa; MTT, read-out: TGI)?
The IC (total growth inhibition) was over 500 µg/mL.

What about the LC50 (concentration causing 50% net cell loss) (HeLa; read-out: LC50) of the same compound?
The LC50 (concentration causing 50% net cell loss) was over 500 µg/mL.

And the LC50 (concentration causing 50% net cell loss relative to time zero) (MCF7; MCF7, read-out: LC50)?
The LC50 (concentration causing 50% net cell loss relative to time zero) was over 500 µg/mL.

What about the GI50 (MCF7; MCF7, MTT) of the same compound?
Its GI50 is 2.53 µg/mL (≈ 5.96 µM).

What about the IC50 (MCF7; MCF7, MTT, read-out: IC50) of the same compound?
Its IC50 is 66.8 µg/mL (≈ 157 µM).

And the IC (total growth inhibition) (MCF7; MCF7, MTT, read-out: TGI)?
The IC (total growth inhibition) was 75.7 µg/mL.

And the LC50 (concentration giving 50% net cell loss relative to time zero) (C6 (Rat brain glioma); read-out: LC50)?
Its LC50 (concentration giving 50% net cell loss relative to time zero) is 249 µg/mL (≈ 587 µM).

What about the GI50 (C6 (Rat brain glioma); C6, MTT) of the same compound?
Its GI50 is 4.56 µg/mL (≈ 10.7 µM).

And the IC50 (C6 (Rat brain glioma); C6, MTT, read-out: IC50)?
Its IC50 is 33.5 µg/mL (≈ 78.9 µM).

And the IC (total growth inhibition) (C6 (Rat brain glioma); C6, MTT, read-out: TGI)?
The IC (total growth inhibition) was 18.1 µg/mL.

What about the LC50 (concentration causing 50% net cell loss) (A549; A549, read-out: LC50) of the same compound?
Its LC50 (concentration causing 50% net cell loss) is over 500 µg/mL.

And the GI50 (A549; A549, MTT)?
The GI50 was 23.7 µg/mL (≈ 55.8 µM).

And the IC50 (A549; A549, MTT, read-out: IC50)?
The IC50 was over 500 µg/mL.

And the IC (total growth inhibition) (A549; A549, MTT, read-out: TGI)?
Its IC (total growth inhibition) is over 500 µg/mL.

What about the cytotoxicity at 24 h, 25 μg/mL ([1]; 25 μg/mL) of the same compound?
Its cytotoxicity at 24 h, 25 μg/mL is 19.8%.

And the cytotoxicity at 24 h, 50 μg/mL ([1]; 50 μg/mL)?
Its cytotoxicity at 24 h, 50 μg/mL is 35.3%.

What about the cytotoxicity at 24 h, 75 μg/mL ([1]; 75 μg/mL) of the same compound?
The cytotoxicity at 24 h, 75 μg/mL was 40.3%.

What about the cytotoxicity at 24 h, 100 μg/mL ([1]; 100 μg/mL) of the same compound?
Its cytotoxicity at 24 h, 100 μg/mL is 54.3%.

What about the MIC (S. gordonii NCTC 7870) of the same compound?
Its MIC is 125 µg/mL (≈ 294 µM).

What about the MIC (E. coli ATCC 25922) of the same compound?
Its MIC is over 1000 µg/mL.

What about the MIC [2] of the same compound?
The MIC was 250 µg/mL (≈ 589 µM).

What about the MIC (E. coli ESBL ATCC 35218) of the same compound?
The MIC was over 1000 µg/mL.

And the MIC [3]?
Its MIC is over 1000 µg/mL.

And the cytotoxicity at 24 h, 25 μg/mL ([4]; HT29, 25 μg/mL)?
Its cytotoxicity at 24 h, 25 μg/mL is 24.6%.

What about the cytotoxicity at 24 h, 50 μg/mL ([4]; HT29, 50 μg/mL) of the same compound?
Its cytotoxicity at 24 h, 50 μg/mL is 39.4%.

What about the cytotoxicity at 24 h, 75 μg/mL ([4]; HT29, 75 μg/mL) of the same compound?
The cytotoxicity at 24 h, 75 μg/mL was 75.9%.

And the cytotoxicity at 24 h, 100 μg/mL ([4]; HT29, 100 μg/mL)?
Its cytotoxicity at 24 h, 100 μg/mL is 96.8%.

What about the cytotoxicity at 24 h, 25 μg/mL ([5]; C6, 25 μg/mL) of the same compound?
The cytotoxicity at 24 h, 25 μg/mL was 26.9%.

And the cytotoxicity at 24 h, 50 μg/mL ([5]; C6, 50 μg/mL)?
The cytotoxicity at 24 h, 50 μg/mL was 44.1%.

And the cytotoxicity at 24 h, 75 μg/mL ([5]; C6, 75 μg/mL)?
The cytotoxicity at 24 h, 75 μg/mL was 62.6%.

What about the cytotoxicity at 24 h, 100 μg/mL ([5]; C6, 100 μg/mL) of the same compound?
Its cytotoxicity at 24 h, 100 μg/mL is 87.1%.

And the GI50 (normal FL cells)?
Its GI50 is 4.16 µg/mL (≈ 9.8 µM).

And the IC50 (normal FL cells; read-out: IC50)?
The IC50 was 25.3 µg/mL (≈ 59.7 µM).

And the IC (total growth inhibition) (normal FL cells; read-out: TGI)?
Its IC (total growth inhibition) is 25.8 µg/mL.

And the LC50 (concentration causing 50% net cell loss) (in vitro)?
The LC50 (concentration causing 50% net cell loss) was over 500 µg/mL.
